For the assay, the target named is T1, brain acetylcholinesterase (AChE) (Rattus norvegicus, UniProt P37136).
T1 construct: corpora striata dissected free, weighed and homogenized in 19 volumes; from tissue; host or cells: corpora striata of male Wistar rats, whole homogenate
T1 sequence (P37136 32-614): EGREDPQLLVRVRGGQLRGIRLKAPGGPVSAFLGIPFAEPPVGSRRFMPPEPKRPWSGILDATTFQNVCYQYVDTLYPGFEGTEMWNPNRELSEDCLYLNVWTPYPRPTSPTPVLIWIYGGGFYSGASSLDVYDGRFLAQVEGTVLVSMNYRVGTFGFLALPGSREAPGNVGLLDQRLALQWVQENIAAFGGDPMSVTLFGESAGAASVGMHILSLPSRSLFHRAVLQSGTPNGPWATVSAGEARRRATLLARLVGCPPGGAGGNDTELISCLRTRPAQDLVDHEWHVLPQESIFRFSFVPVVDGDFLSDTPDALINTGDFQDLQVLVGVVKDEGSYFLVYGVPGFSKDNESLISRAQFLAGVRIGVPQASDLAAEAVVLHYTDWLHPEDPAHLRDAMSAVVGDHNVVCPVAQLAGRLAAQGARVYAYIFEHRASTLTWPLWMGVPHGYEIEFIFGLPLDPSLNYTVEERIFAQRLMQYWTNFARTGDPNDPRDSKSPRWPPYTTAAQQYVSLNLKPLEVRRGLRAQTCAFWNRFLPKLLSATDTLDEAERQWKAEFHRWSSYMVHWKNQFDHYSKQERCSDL
Briefly: In Vitro Inhibition of Acetylcholinesterase Activity in Rat Striatum. Type of assay: biochemical, rat (male Wistar). The source says:
Cholinesterases are found throughout the body, both in the brain and in serum. However, only brain acetylcholinesterase (AChE) distribution is correlated with central cholinergic innervation. […] We have determined in vitro inhibition of acetylcholinesterase activity in rat striatum according to the method described below.
The method described below was used in this invention for assaying anticholinesterase activity.
1. 0.05M Phosphate buffer, pH 7.2
(c) add (a) to (b) until pH reaches 7.2
(a) 9.9 mg 5,5-dithiobisnitrobenzoic acid (DTNB) (0.25 mM)
(b) 99 mg s-acetylthiocholine chloride (5 mM)
(c) q.s. to 100 ml with 0.05M phosphate buffer, pH 7.2 (reagent 1)
Male Wistar rats are decapitated, brains rapidly removed, corpora striata dissected free, weighed and homogenized in 19 volumes (approximately 7 mg protein/ml) of 0.05M phosphate buffer, pH 7.2 using a Potter-Elvehjem homogenizer. […]
Using the indicated instrument settings the ABA-100 automatically reads the color reaction and prints out the results in enzyme units after 15 minutes.
2. The enzyme activity can also be measured with a Gilford 250 spectrophotometer. […]
The uninhibited activity of the enzyme (tissue homogenate) is first determined. […] The reaction rate is determined by the slope of the recorded absorbance change. The actual rate (moles/liter/min) can be calculated as described in the following formula

Counter-ions that a name gives are not always drawn.

Take `CN1CCC2CC1N(C)c1ccc(OC(=O)NC3CCCCC3)cc12` (centres unmarked) [1,2,3,4,5,6-Hexahydro-1,3-dimethyl-2,6-methano-1,3-benzodiazocin-8-ol, cyclohexyl carbamate]: the IC50 (usually the concentration that gives 50% inhibition) is 10.7 µM. The figure for `CNC(=O)Oc1ccc2c(c1)C1CCN(C)C(C1)N2C` (centres unmarked) [1,2,3,4,5,6-Hexahydro-1,3-dimethyl-2,6-methano-1,3-benzodiazocin-8-ol, methyl carbamate fumarate] is 0.058 µM.
